Values of other authors as cited in US20260272891A1, “TREATMENT OF AUTOIMMUNE DISEASES AND CANCER WITH PROTEASE INHIBITORS” (Lundquist Institute for Biomedical Innovation at …, priority 2023, published 2026).

Test system: all variants of concern, including Omicron and its variants
Conditions: cited from earlier work

SMILES: CC(C)(C)[C@H](NC(=O)C(F)(F)F)C(=O)N1C[C@H]2[C@@H]([C@H]1C(=O)N[C@H](C#N)C[C@@H]1CCNC1=O)C2(C)C [NMV, nirmatrelvir]
- antiviral activity: antiviral activity against all variants of concern
